# Experiment: Human HepG2 cell viability assay in 384 well format
# Assay type: toxicity, cell-based
# Set-up: dose 125 nL, time 70.5 hour; cytotoxicity at 70.5 h: concentration not given beside the values
# Settings: HepG2 cells, read-out: Inhibition
row,SMILES,cytotoxicity at 70.5 h
1,c1cnc2nc(N3CCc4c(ncn4C4CC4)C3)ccc2n1,-6.09%
2,CN(CCN1CCN(c2ccccc2)CC1)C(=O)Nc1ccncc1,-3.63%
3,Cc1nc(CN2CCCN(CC(=O)N(C)CCC#N)CC2)no1,-9.21%
4,C[S+]([O-])c1ccc(CNc2ccc(F)cc2OC(F)F)cc1 (stereo not drawn),-0.988%
5,OC1(CNCc2ccc(F)c(C(F)(F)F)c2)CCSCC1,-7.48%
6,CCCC(C)N(C)Cc1nnc(-c2ccc(Br)s2)o1 (stereo not drawn),-4.09%
7,Cc1cnn(C2CCCN(C(=O)CN(C)c3cnccn3)C2)c1 (stereo not drawn),-2.8%
8,CCOCCC(=O)NC(Cc1ccc(C)cc1)c1ccccn1 (stereo not drawn),0.116%
9,CCCn1nc(C(=O)NCCc2nnc3n2CCC3)ccc1=O,1.09%
10,CC(C1CC1)N(C)Cc1nnc(-c2ccc(Br)s2)o1 (stereo not drawn),-2.75%
11,CN(Cc1ccc(Cl)s1)C(=O)NCCC(=O)N1CCCCCC1,-4.9%
12,Cc1ccc(S(=O)(=O)Nc2cccnc2O)cc1C,-0.331%
13,C=C(C)CN(CC)C(=O)c1cc(Cl)ccc1NS(C)(=O)=O,-0.344%
14,O=C1NCCCCC1NC(=O)C1(c2cccc(C(F)(F)F)c2)CC1 (stereo not drawn),0.452%
15,O=C(OCCNc1ncccn1)c1ccc(Br)s1,-0.709%
16,COc1ccc(CCNC(=O)C2CCOC2)c(Cl)c1 (stereo not drawn),-2.75%
17,CNC(=O)c1ccc(NC(=O)NC(C)CCc2cccn2C)c(C)c1 (stereo not drawn),-0.342%
18,Cc1cc(C)n(C2CCCN(C(=O)CN(C)C3CC3)C2)n1 (stereo not drawn),-3.88%
19,CC(C)CCN(C(=O)Nc1cccc(C(=O)N(C)C)c1)C1CC1,-7.58%
20,Cc1nnc(C(C)N2CCCN(Cc3noc(C4CC4)n3)CC2)o1 (stereo not drawn),13.7%
21,O=C(Cn1ccc(=O)[nH]c1=O)NCc1cccnc1OCC(F)(F)F,-10.1%
22,Cn1cnnc1C1CCCN(c2nc3ccccc3o2)C1 (stereo not drawn),0.708%
23,CC(C)CN(C(=O)Nc1cccc(C(=O)N(C)C)c1)C1CC1,-10.3%
24,COc1ccc(OC)c(C(=O)Nc2cccnc2-n2cncn2)c1,-10.9%

row,SMILES,cytotoxicity at 70.5 h
1,CC(C)c1ccc(S(=O)(=O)NC2CCN(CC(F)(F)F)C2)cc1 (stereo not drawn),16.7%
2,CC(C)c1noc(C(C)N2CCN(Cc3noc(C4CC4)n3)CC2)n1 (stereo not drawn),-10.9%
3,CCN(Cc1ccoc1)C(=O)Nc1ccccc1CN(C)C(C)=O,22%
4,CC(C(=O)Nc1cccc(F)c1)N(C)CCN1CCOCC1 (stereo not drawn),-4.4%
5,CCCc1cc(N(CCOC)CC(F)F)n2ncnc2n1,18.6%
6,O=S(=O)(NC1CCN(CC(F)(F)F)C1)c1cc(F)cc(F)c1 (stereo not drawn),12.7%
7,COCCN(CC(F)F)c1cc(COC)nc2ncnn12,-9.69%
8,CCc1oc(C(=O)OC)cc1Cn1cccc(C(F)(F)F)c1=O,-1.62%
9,COC(=O)c1sc(C(NC(=O)c2ccccc2)C2CC2)nc1C (stereo not drawn),-3.65%
10,CSc1ncccc1C(=O)NC(C)c1cccc(N2CCOC2=O)c1 (stereo not drawn),-10.4%
11,CC(C)(C)C(NC(=O)CCS(C)(=O)=O)c1ccc(F)cc1F (stereo not drawn),-6.93%
12,CC(C)(C)C(NC(=O)CCCS(C)(=O)=O)c1ccc(F)cc1F (stereo not drawn),-0.26%
13,COc1cccc2c1CCCCN2C(=O)c1oc(C)nc1C,0.154%
14,CC(C)N(CC(=O)Nc1cccc(C#N)c1)C1CC1,-4.01%
15,Cc1nc(CN(C)S(=O)(=O)c2ccccc2Br)no1,-3.75%
16,CCc1noc(C(C)N2CCCN(Cc3noc(C4CC4)n3)CC2)n1 (stereo not drawn),-13.5%
17,Cc1cnn(CC(C)NCC(=O)Nc2ccc(Cl)cn2)c1 (stereo not drawn),-2.39%
18,CN(CC(=O)NC(C)(C)C)C(=O)c1cccn1CCc1ccccc1,5.51%
19,Cc1ccc(-c2csc(-c3cccc(C(=O)O)c3)n2)cc1,19.5%
20,COc1ccccc1OCCNC(=O)NCC(C)C,-12.4%
21,NC(=O)CSc1ccccc1NCc1nc(Cc2ccccc2)no1,-6.14%
22,Cc1cc(CNC(=O)NCC(O)c2cccc(F)c2)no1 (stereo not drawn),-10.8%
23,Cc1ccc(CN2CCC(CNC(=O)Cn3cncn3)CC2)cc1,-6.33%
24,COc1ccc(CN2CCN(Cc3nccn3C)C(C)C2)cc1F (stereo not drawn),-9.42%

row,SMILES,cytotoxicity at 70.5 h
1,CC(C)CC1COCCN1C(=O)Cc1cccs1 (stereo not drawn),-4.92%
2,CCc1nc(CN(C)C2CCN(Cc3ccc(Cl)s3)C2)no1 (stereo not drawn),8.41%
3,Fc1ccc(CNCc2nnc3n2CC(C(F)(F)F)CC3)cc1 (stereo not drawn),-13.6%
4,CC(C(=O)Nc1sccc1C(N)=O)N(C)CCOc1ccccc1 (stereo not drawn),-20.6%
5,O=C(c1cn(-c2ccccc2C(F)(F)F)nn1)N1CCSCC1,-15.5%
6,Cc1noc(C)c1CCC(=O)N1CCCCC1CNS(C)(=O)=O (stereo not drawn),-7.67%
7,Cc1ccc(C(=O)NCc2cccnc2-n2cncn2)cc1S(C)(=O)=O,17.5%
8,CCSc1cc(C(=O)NC2CCN(C(=O)c3ccccc3)CC2)ccn1,-17.6%
9,CN(C)c1ccc(C(=O)NCc2cccnc2-n2cncn2)cc1F,-17.5%
10,O=S(=O)(Cc1ccccc1F)N1CCCC1c1nnc2n1CCCCC2 (stereo not drawn),-6.25%
11,O=C(c1cccnc1O)N1CCN(Cc2ccccc2F)CC1,17.4%
12,O=C(c1ccn(-c2ccccc2Cl)n1)N1CCCSCC1,-3.62%
13,Cc1cc(C)n(-c2cncc(NCCNS(C)(=O)=O)n2)n1,2.9%
14,Cc1cc(C)n(-c2cncc(NCCNC(=O)c3cccnc3)n2)n1,-3.57%
15,O=C(c1cn(-c2ccccc2Cl)nn1)N1CCN(CCO)CC1,-5.32%
16,Cc1nc(CN(C)Cc2cc3c(cc2OC(F)F)OCO3)oc1C,4.89%
17,Cc1noc(CCCC(=O)N2CCCCC2CNS(C)(=O)=O)n1 (stereo not drawn),-9.36%
18,COc1cccc(CCC(=O)N2CCN(Cc3noc(C)n3)CC2)c1,-0.347%
19,CC(C)(C)OC(=O)NCC1CCCCN1Cc1ccncc1 (stereo not drawn),-1.8%
20,CCn1c(C)nnc1CN(C)C1CCN(Cc2sc(C)nc2C)C1 (stereo not drawn),3.85%
21,Cc1ccc(F)cc1NC(=O)CNc1cccc2c1CCCC2,-7.64%
22,Cn1c(Nc2ccc(F)cc2)c(C#N)c(=O)n(C)c1=O,-4.76%
23,COc1cc(Nc2c(C#N)c(=O)n(C)c(=O)n2C)cc(OC)c1,-6.16%
24,Cc1ccc(Nc2c(C#N)c(=O)n(C)c(=O)n2C)cc1F,-4.93%

row,SMILES,cytotoxicity at 70.5 h
1,CCC(CNC(=O)NCc1cc[nH]n1)N1CCCC1 (stereo not drawn),-4.31%
2,CC(C)(C)OC(=O)NCC1CCCCN1Cc1cccnc1 (stereo not drawn),-0.715%
3,CC1CCCN(C(=O)Cn2cc(I)cn2)C1 (stereo not drawn),-3.76%
4,CCC(C)(NCC(=O)NC(=O)NC)c1nc(C)cs1 (stereo not drawn),-4.2%
5,COc1ccc(C(=O)Cn2cnnc2[S+](C)[O-])cc1Cl (stereo not drawn),-3.44%
6,Cc1ccc(NC(=O)NC(C)c2nc[nH]n2)cc1Cl (stereo not drawn),-3.17%
7,C[S+]([O-])c1nncn1CC(=O)c1ccc(Br)cc1 (stereo not drawn),-5.18%
8,Cc1nn(C)c(N(C)C)c1CNCc1cnn(Cc2ccccc2)c1,-2.79%
9,O=C(NCc1ccccn1)NCC(c1ccco1)N1CCCC1 (stereo not drawn),-1.51%
10,Cc1nc(CN2CCN(C(=O)CCc3cccc(Cl)c3)CC2)no1,13.5%
11,O=S(=O)(c1ccc(Cl)cc1)N1CCN(CCCn2ccnc2)CC1,-1.12%
12,Cc1nn(C)c(N(C)C)c1CNCc1cccc(Cl)c1,0.245%
13,COc1ccc(CN(C)Cc2cccc(C#N)c2)c(OC)c1,-3.94%
14,O=C(NCc1ccc(N2CCCC2)nc1)N1CCc2sccc2C1,-0.866%
15,O=C(Nc1ccccn1)c1nc(N2CCCC2)ncc1Cl,-6.57%
16,COc1cc(CN(C)C(=O)NCc2cccc3c2OCO3)ccc1SC,-6.35%
17,COc1cc(CN(C)C(=O)NCc2nccs2)ccc1SC,-6.87%
18,Cc1ccc(C(=O)NCCNS(C)(=O)=O)c(=O)[nH]1,-3.54%
19,Cc1ccc(C(=O)NCCCS(C)(=O)=O)c(=O)[nH]1,15.4%
20,CCOCCCNC(=O)N(C)Cc1ccc(SC)c(OC)c1,1.54%
21,O=C(c1cc2c([nH]c1=O)CCC2)N1CCCC1c1ccc(F)cc1 (stereo not drawn),-3.95%
22,COCCN(CCC#N)S(=O)(=O)c1cc(F)cc(F)c1,3.86%
23,COCCN(CCC#N)S(=O)(=O)c1ccc(F)cc1Cl,0.577%
24,CC(C)n1c(C2CCCN(CC(N)=O)C2)nc2ccccc21 (stereo not drawn),-1.68%

row,SMILES,cytotoxicity at 70.5 h
1,CSc1cc2c(cc1NC(=O)NCc1ccco1)OCCO2,-5.54%
2,N#Cc1ccc(CNC2CCN(CCc3ccncc3)CC2)cc1,-1.86%
3,CC(CNC(=O)N1CCS(=O)(=O)CC1)Cc1cccs1 (stereo not drawn),-1.72%
4,CC(CNC(=O)N1CCN(c2ncccn2)CC1)Cc1cccs1 (stereo not drawn),17.5%
5,Oc1cccc(CNC2CCN(CCc3ccncc3)CC2)c1,-1.4%
6,Fc1ccc(CNC2CCN(CCc3ccncc3)CC2)cc1F,-3.84%
7,Cc1cccc(CNC2CCN(CCc3ccncc3)CC2)c1C,-3.09%
8,CC(CNC(=O)N1CCC(CO)CC1)Cc1cccs1 (stereo not drawn),-3.99%
9,Cc1cnc(CN2CCCC(c3nc4ccccc4n3C(C)C)C2)o1 (stereo not drawn),20.6%
10,O=C1CCc2cc(OCCN3CCc4cncnc4C3)ccc2N1,-3.56%
11,Cc1noc(C)c1CNc1cccc(C(=O)N2CCCC(O)C2)c1 (stereo not drawn),-9.24%
12,COc1ccc(CC(=O)N(C)C2CCN(C)C2=O)cc1F (stereo not drawn),-6.33%
13,Cc1ncsc1-c1nc(-c2cccc(CN3CCOCC3)c2)no1,-6.25%
14,CCN(CC(=O)Nc1c(C)n[nH]c1C)CC(O)c1ccc(C)cc1 (stereo not drawn),13.8%
15,CSC1(CNc2ncc(Br)cn2)CCOCC1,-0.0448%
16,Cc1n[nH]c(C2CN(CCCOc3ccc(F)cc3)CCO2)n1 (stereo not drawn),-12.3%
17,CC(C)Nc1ncccc1C(=O)NCc1ncc[nH]1,-1.28%
18,CNC(=O)Cc1nc(CNc2ccc(SC)c(F)c2)cs1,-0.256%
19,Cc1ccc(F)c(NCC(C)(C)S(C)(=O)=O)c1,-2.22%
20,COc1ccc(F)c(NCC(C)(C)S(C)(=O)=O)c1,-4.68%
21,CCN(C)S(=O)(=O)N(CC)Cc1cccc(-c2ccncc2)c1,-4.01%
22,COc1cc2c(cc1CNCc1ccnc(-n3cccn3)c1)OC(C)C2 (stereo not drawn),-12.6%

# Source: ChEMBL document CHEMBL3507680, “University of Dundee, Gates Library screen for HepG2 cell viability”
